In PubChem BioAssay (NCI):
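How tested: cells in 96-well plates exposed to compound for 48 hours at five concentrations. Definition used: TGI = concentration required for complete inhibition of growth.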

How the values were obtained:
Assay in all cases: growth of human tumour cells (NCI), 48 h
OVCAR-5 ovarian = system: OVCAR-5 ovarian
EKVX NSCLC = system: EKVX NSCLC
KM12 colon = system: KM12 colon
HCC-2998 colon = system: HCC-2998 colon
SK-MEL-28 melanoma = system: SK-MEL-28 melanoma
HCT-116 colon = system: HCT-116 colon
SF-539 CNS = system: SF-539 CNS
ACHN renal = system: ACHN renal
HOP-92 NSCLC = system: HOP-92 NSCLC
SK-MEL-5 melanoma = system: SK-MEL-5 melanoma
SN12C renal = system: SN12C renal
RPMI-8226 leukemia = system: RPMI-8226 leukemia
PC-3 prostate = system: PC-3 prostate

SMILES | TGI (OVCAR-5 ovarian) [µM] | TGI (EKVX NSCLC) [µM] | TGI (KM12 colon) [µM] | TGI (HCC-2998 colon) [µM] | TGI (SK-MEL-28 melanoma) [µM] | TGI (HCT-116 colon) [µM] | TGI (SF-539 CNS) [µM] | TGI (ACHN renal) [µM] | TGI (HOP-92 NSCLC) [µM] | TGI (SK-MEL-5 melanoma) [µM] | TGI (SN12C renal) [µM] | TGI (RPMI-8226 leukemia) [µM] | TGI (PC-3 prostate) [µM]
CC(=O)OC1COC(n2c(O)c(N=NC(N)=S)c3cc(Br)ccc32)C(OC(C)=O)C1OC(C)=O (centres undefined) | > 100 | > 100 | > 100 | > 100 | > 100 | > 100 | > 100 | > 100 | > 100 | > 100 | > 100 | > 100 | 
COC1=C(OC)C(=O)C(Cc2c(Cl)nc3sc(C)cn23)=C(C)C1=O | 35.9 | 35.6 | 27.8 | 39 | 32.2 | 55.9 | 34.6 | 40 |  | 23.9 | 30.5 | 31.8 | 34.9
N#Cc1c(N)nc(-c2ccc(Cl)cc2)c2c1-c1ccccc1S(=O)(=O)CC2 | > 100 |  | > 100 | > 100 | > 100 | > 100 |  | > 100 | > 100 | > 100 | > 100 | > 100 | > 100
CCOC(=O)c1cccn1S(=O)(=O)c1cc(Cl)ccc1NC(=O)CC | > 100 | > 100 | > 100 |  | > 100 | > 100 | > 100 | > 100 | > 100 | > 100 | > 100 | > 100 | > 100
COC(=O)/C=C(/C)n1nc2ccccc2n1 | > 100 | > 100 | > 100 | > 100 | > 100 | > 100 |  | > 100 |  | > 100 | > 100 | > 100 | > 100
CCSc1[nH]c(NC(=S)NC(=O)c2ccccc2Cl)c(C(N)=O)c1C(N)=O |  | > 10 | > 10 | > 10 | > 10 |  |  |  | > 10 | > 10 | > 10 | > 10 | > 10
C[C@]12CCC(=O)C=C1CC[C@@H]1[C@@H]2CC[C@]2(C)C(=O)NC(=O)C[C@@H]12 | > 100 | > 100 | > 100 | > 100 | > 100 | > 100 | > 100 | > 100 | > 100 | > 100 | > 100 | > 100 | 
COC(=O)C1(C(=O)OC)Cc2ccc(OC)cc2C2=C1C(=O)c1ccccc1C2=O | 20.2 | 19.1 | 23.5 | 37.6 | 31.4 | 10.9 | 30.7 | 15.1 | 15.9 | 19.3 | 14.4 |  | 4.18
C[N+](C)(C)CC(=O)N/N=C/c1oc(-c2c(O)ccc3ccccc23)c(-c2c(O)ccc3ccccc23)c1[N+](=O)[O-] | 60.1 | 45 | 38.9 | 34.3 | 49.2 | 24.7 | 29.4 | 32.5 | 50.9 | 22.9 | 92.7 | > 100 | 
CC(C)OC(=O)c1ccc(NCc2cc(O)ccc2O)cc1Cl | 26.6 | 25.5 | > 38.1 | 17.3 | 38.6 | 52.5 | 6.07 | 7.83 | 18 | 11.1 | 32.2 |  | 12.5
CS(=O)(=O)c1nc(-c2cc3c(c(S(C)(=O)=O)n2)CCC3)cc2c1CCCCC2 | > 100 | > 100 | > 100 | > 100 | > 100 | > 100 |  | > 100 |  | > 100 | > 100 | > 100 | > 100
C=Cc1ccc(C)[n+](C[Si](C)(C)O[Si](C)(C)C)c1 | > 100 | > 100 | > 100 | > 100 | > 100 | > 100 | > 100 | > 100 |  | > 100 | > 100 | > 100 | 
CC(=O)OCC1=C(CCC#N)N2C(=O)C(NC(=O)Cc3cccs3)C2S(=O)C1 (centres undefined) | > 100 | > 100 | > 100 | > 100 | > 100 | > 100 | > 100 | > 100 | > 100 | > 100 | > 100 | > 100 | 
O=C1/C(=C/c2cccc(Br)c2)CCc2ccccc21 | 28.3 | 32.7 | 20.7 |  | 33.8 | 19.9 | 31.4 | 27.7 | 28.2 |  | 29.2 |  | 27.7
O=C1NC2ON=C(c3ccccc3)C2C2ON=C(c3ccccc3)N12 (centres undefined) | > 100 | > 100 | > 100 | > 100 |  |  | > 100 | > 100 |  | > 100 |  |  | > 100
O=C(c1cccs1)N(C(=S)N1CCN(c2ccccn2)CC1)c1ccccc1 | > 100 |  | > 100 |  | > 100 | > 100 | > 100 | > 100 | > 100 | > 100 | > 100 | > 100 | 
COc1ccc2c3c1O[C@]1(C)C34CCN(C)C(C2)C42C=C[C@@]1(OC)c1c(O)ccc(O)c12 | > 100 | > 100 | > 100 | > 100 | > 100 | > 100 | > 100 | > 100 | > 100 | > 100 |  | > 100 | 
O=c1c2c(oc3ccccc13)-c1ccccc1OC2 | > 100 | > 100 | > 100 | > 100 |  | > 100 | 72.7 | > 100 |  | > 100 | > 100 | > 100 | > 100
COC(=O)C(=O)C(C(=O)C(=O)Nc1ccc(F)cc1)c1nc2ccc([N+](=O)[O-])cc2[nH]c1=O (centres undefined) | > 100 | > 100 | > 100 | > 100 | > 100 | > 100 | > 100 |  | > 100 | > 100 | > 100 | > 100 | 

SMILES | TGI (OVCAR-5 ovarian) [µM] | TGI (EKVX NSCLC) [µM] | TGI (KM12 colon) [µM] | TGI (HCC-2998 colon) [µM] | TGI (SK-MEL-28 melanoma) [µM] | TGI (HCT-116 colon) [µM] | TGI (SF-539 CNS) [µM] | TGI (ACHN renal) [µM] | TGI (HOP-92 NSCLC) [µM] | TGI (SK-MEL-5 melanoma) [µM] | TGI (SN12C renal) [µM] | TGI (RPMI-8226 leukemia) [µM] | TGI (PC-3 prostate) [µM]
O=C(CSc1nnc(-c2ccc(N=Cc3ccc(Cl)cc3)cc2)o1)Nc1ccccc1[N+](=O)[O-] |  | > 100 | > 100 |  | > 100 | > 100 |  | > 100 |  | > 100 | > 100 | > 100 | 
C/C(=N\NS(=O)(=O)c1ccc(C)cc1)C(CN1CCCCC1)C(c1ccccc1)c1c(O)c2ccccc2oc1=O (centres undefined) | > 100 | > 100 | > 100 | > 100 |  | > 100 | > 100 | > 100 | > 100 | > 100 | > 100 | > 100 | 
COc1ccc2[nH]cc(CCNC(=O)[C@H](Cc3ccccc3)NC(=O)[C@@H](NCC(F)(F)F)C(C)C)c2c1 | 34.8 | 44 | 49.7 |  | 31.8 | 32 | 34.3 | 67.7 | 28.4 |  | 49 | 23.8 | 40.9
O=C(O)c1nc2cc(C(F)(F)F)ccc2nc1Nc1ccc(F)cc1 | 93.5 | 89.6 | 30.3 |  | > 100 | 48.4 | 32.4 | 35.2 | 39.3 | 48.1 |  | > 100 | 31.6
CCc1c2c([nH]c(=S)c1C#N)CCC2 | > 100 | 75.6 | > 100 | > 100 | > 100 | > 100 |  | > 100 | > 100 | > 100 |  | > 100 | > 100
O=[N+]([O-])/C(C(Cl)=C(Cl)Cl)=C(\N1CCOCC1)n1nnc2ccccc21 | 44 | 35.2 | 45.6 |  | 42.6 | > 100 | 32.8 | 34.9 | 37.6 | 35.3 | 42.9 | > 100 | 30.8
O=C1c2cc(Cl)ccc2-n2cnnc2C2CSCN12 (centres undefined) | > 100 | > 100 | > 100 | > 100 | > 100 | > 100 |  | > 100 |  | > 100 | > 100 | > 100 | > 100
O=C(Nc1ccc(Cl)cc1)NS(=O)(=O)c1coc2cc(F)ccc2c1=O | > 100 | > 100 | > 100 | > 100 | > 100 |  | > 100 | > 100 |  | > 100 | > 100 |  | > 100
COC(=O)c1ccc(C)cc1CC1Cc2cc(C)ccc2C1=O (centres undefined) | > 100 | > 100 | > 100 | > 100 | > 100 | > 100 | > 100 | > 100 |  |  | > 100 | > 100 | > 100
C1=NCCN2CCN(CCN=Cc3ccc(cc3)OCc3cccc(n3)COc3ccc1cc3)CC2 | > 50 | > 50 | > 50 |  | > 50 | > 50 | > 50 | > 50 | > 50 |  | > 50 | > 50 | > 50
Cc1cc2c(cc1-c1cc3c(cc1C)C(C(C)C)=C(O)C(=O)/C3=C\Nc1c3ccccc3nc3ccccc13)/C(=C/Nc1c3ccccc3nc3ccccc13)C(=O)C(O)=C2C(C)C | 16.7 | 5.67 | 14.1 |  | 19.5 | 21.5 | 16.1 | 5.91 | 21.5 | 15.4 | 22 | > 100 | 12.9
Clc1ccc(NCc2nnc(CCCCCCCCc3nnc(CNc4ccc(Cl)cc4)o3)o2)cc1 | > 100 | > 100 | > 100 | > 100 |  | > 100 |  | > 100 | > 100 | > 100 | > 100 | > 100 | > 100
COc1cc(O)c2c(=O)cc(-c3ccc(O)cc3O)oc2c1CC=C(C)C | > 100 | 73.6 | 21.5 |  | > 100 | 32.4 | 34.7 | 30.4 | 35.7 | 47.9 | 31.5 | > 100 | 27.1
NC1=C(NC(=O)Cc2ccc(F)cc2)C(=O)c2ccccc2C1=O | > 100 | > 100 | > 100 | > 100 | > 100 | > 91.1 | > 100 | > 100 | 64.3 | > 100 | > 100 | > 100 | 
C=CCNC1=C2C[C@@H](C)C[C@@H](OC)[C@H](OC(=O)CCN)[C@H](C)/C=C(\C)[C@@H](OC(N)=O)[C@H](OC)/C=C\C=C(/C)C(=O)NC(=CC1=O)C2=O | 23.3 | 36.4 | 11.2 | 3.61 | 44.2 | 13.6 |  | 25.2 | 16.9 | 17.4 | 16.2 | 32.5 | 
NC(=O)N/N=C(\CC1OC(=O)c2ccccc21)c1ccco1 (centres undefined) | > 100 | > 100 | > 100 | > 100 | > 100 | > 100 | > 100 | > 100 | > 100 | > 100 |  |  | 
Cc1csc2c(=O)n(C3OC(CO)C(O)C3O)c(=O)[nH]c12 (centres undefined) | > 100 | > 100 | > 100 |  | > 100 | > 100 | > 100 | > 100 | > 100 | > 100 | > 100 | > 100 | > 100
CC[C@]1(Cc2ccc(OC)c(OC)c2)C=[N+]([O-])O[C@H](OC2CCCC2(c2ccccc2)c2ccccc2)[C@@H]1OC(=O)c1ccccc1 (some centres undefined) | > 100 | > 23.8 | 22.9 | > 27.4 | > 100 | > 100 | > 100 | > 34.8 | > 100 | 12.7 | > 88.2 |  | > 100
